Source: patent publication US20100204248A1, “MEDICAMENTS AND METHODS FOR INHIBITION OF NON-OCULAR SCARRING” (Renovo Limited, priority 2007, published 2010)

Experiments:
incisional wounds = experiment: Incisional wound healing model, wounds harvested three days post-wounding; format: in vivo, Sprague Dawley rats
Procedure: (§1) At day 0, male Sprague Dawley rats (200-250 g) were anaesthetised, shaved and wound sites were marked according to the Renovo rat incisional wounding template (2 wound model, 2×1 cm wounds, 5 cm from the base of the skull and 1 cm from the midline in each rat). One hundred microlitres of 6-mercaptopurine at 1 ng, 10 ng or 1000 ng in phosphate buffered saline (PBS, pH 7.2; GIBCO BRL, Cat. #20012-019) containing 5% ethanol was injected intradermally at the wound sites. The intradermal injections caused the formation of a raised bleb, which was then immediately incised to form 1 cm long experimental wounds. Separate groups of rats used as naïve controls and diluent controls. Naïve control animals were wounded without treatment, whilst diluent control animals were injected with 100 μl of the PBS/ethanol mixture prior to wounding. All treated or diluent control wounds were re-injected again 1 day post-wounding with the appropriate treatment via injection of 50 μl to each of the two margins of the 1 cm wound. Wounds from the treated, naïve control and diluent control animals were all harvested at day 70 post-wounding.
Treated and control incisional wounds were created as described above, to allow assessment of the effects of NR4A agonists, such as 6-mercaptopurines, on wound healing. Wounds from the treated, naïve control and diluent control animals were all harvested at three days post-wounding.
The wounds were photographed after wounding, prior to re-injection on day one and on the day of harvest. Day three incisional or excisional wounds were excised from the experimental rats (incorporating a small amount of surrounding normal tissue). […] The fixed tissue was then processed for wax histology, stained using Masson's trichrome, and wound width assessed using image analysis software. Width of incisional wounds was measured at a point mid-way through the depth of the wound, whereas width of excisional wounds was measured at the top of the wounds.

NR4A1 = NR4A1 (Homo sapiens, UniProt P22736); conditions: cited from earlier work
NR4A3 = NR4A3 (Homo sapiens, UniProt Q92570); conditions: cited from earlier work
NR4A2 = NR4A2 (Homo sapiens, UniProt P43354); conditions: cited from earlier work
[1] = system: full thickness cutaneous incisional wounds; experiment: Scarring model: rat incisional wounds, macroscopic and microscopic VAS scar assessment at day 70; format: in vivo, Sprague Dawley rats; conditions: for macroscopic appearance of scars (macroscopic VAS): before wounding and 1 day post-wounding; for macroscopic appearance of scars (macroscopic VAS) / microscopic appearance of scars (microscopic VAS): vs naïve control or diluent control
Procedure: as §1, with “The intradermal injections caused the formation of a raised bleb, which was then immediately incised to form 1 cm long experimental wounds.” left out, “post-wounding. The wounds were photographed after wounding, prior to re-injection on day 1 and on day of harvest. The scars were assessed using standard macroscopic scar assessment using a visual analogue scale (VAS) consisting of a 0-10 cm line representing a scale, from left to right, of 0 (corresponding to normal skin) to 10 (indicative of a bad scar). For microscopic assessment the scars were excised from the experimental rats (incorporating a small amount of surrounding normal tissue) and fixed in 10% (v/v) buffered formal saline. The fixed tissue was then processed for wax histology, stained using Masson's trichrome, and scarring assessed using a microscopic visual analogue scale (VAS).” for “post-wounding.”

excisional wounds = experiment: Excisional wound healing model, 5 mm punch biopsy wounds harvested day 3; format: in vivo, Sprague Dawley rats
Procedure: One hundred microlitres of 6-mercaptopurine at 1 ng, 10 ng or 1000 ng in phosphate buffered saline (PBS, pH 7.2; GIBCO BRL, Cat. #20012-019) containing 5% ethanol was injected intradermally at the wound sites. […] Separate groups of rats used as naïve controls and diluent controls. Naïve control animals were wounded without treatment, whilst diluent control animals were injected with 100 μl of the PBS/ethanol mixture prior to wounding. […] For microscopic assessment the scars were excised from the experimental rats (incorporating a small amount of surrounding normal tissue) and fixed in 10% (v/v) buffered formal saline. […]

[2] = day 3, measured mid-way through wound depth, 1, 10 or 1000 ng/100 μl intradermal
[3] = day 3, measured at top of wound, 1, 10 or 1000 ng/100 μl intradermal

NR4A3, sequence (Q92570 whole entry): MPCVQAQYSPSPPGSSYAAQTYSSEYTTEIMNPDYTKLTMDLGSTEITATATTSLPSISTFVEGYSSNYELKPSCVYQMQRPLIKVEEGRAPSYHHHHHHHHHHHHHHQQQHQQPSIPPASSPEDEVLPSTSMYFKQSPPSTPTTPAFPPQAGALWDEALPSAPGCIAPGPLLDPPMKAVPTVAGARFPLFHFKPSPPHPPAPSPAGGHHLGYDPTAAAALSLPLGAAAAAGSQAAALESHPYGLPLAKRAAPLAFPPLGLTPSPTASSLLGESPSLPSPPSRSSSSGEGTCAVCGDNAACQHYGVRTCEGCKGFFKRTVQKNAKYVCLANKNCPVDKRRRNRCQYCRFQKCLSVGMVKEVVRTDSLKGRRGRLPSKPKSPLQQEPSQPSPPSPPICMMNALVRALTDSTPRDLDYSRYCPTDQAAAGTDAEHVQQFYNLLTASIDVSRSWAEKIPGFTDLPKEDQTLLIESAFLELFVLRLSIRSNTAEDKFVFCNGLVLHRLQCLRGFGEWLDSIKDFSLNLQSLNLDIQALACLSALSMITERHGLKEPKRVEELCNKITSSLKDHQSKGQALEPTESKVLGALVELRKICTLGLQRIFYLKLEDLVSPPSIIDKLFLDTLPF
NR4A1, sequence (P22736 whole entry): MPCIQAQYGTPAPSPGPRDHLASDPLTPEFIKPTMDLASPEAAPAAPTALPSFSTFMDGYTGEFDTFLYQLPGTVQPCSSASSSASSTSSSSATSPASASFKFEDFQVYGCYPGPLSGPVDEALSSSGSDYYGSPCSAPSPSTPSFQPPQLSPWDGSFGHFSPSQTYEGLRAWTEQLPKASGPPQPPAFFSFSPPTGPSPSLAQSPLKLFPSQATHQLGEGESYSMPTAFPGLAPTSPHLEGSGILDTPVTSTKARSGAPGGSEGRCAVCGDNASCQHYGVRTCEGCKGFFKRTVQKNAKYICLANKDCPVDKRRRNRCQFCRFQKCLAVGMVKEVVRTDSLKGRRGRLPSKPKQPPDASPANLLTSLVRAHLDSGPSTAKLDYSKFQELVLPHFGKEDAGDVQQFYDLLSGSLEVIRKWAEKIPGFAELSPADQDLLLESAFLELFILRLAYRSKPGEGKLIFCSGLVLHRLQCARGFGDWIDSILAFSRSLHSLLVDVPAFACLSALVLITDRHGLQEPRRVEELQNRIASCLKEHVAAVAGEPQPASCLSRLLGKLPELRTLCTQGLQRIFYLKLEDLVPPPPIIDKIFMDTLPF
NR4A2, sequence (P43354 whole entry): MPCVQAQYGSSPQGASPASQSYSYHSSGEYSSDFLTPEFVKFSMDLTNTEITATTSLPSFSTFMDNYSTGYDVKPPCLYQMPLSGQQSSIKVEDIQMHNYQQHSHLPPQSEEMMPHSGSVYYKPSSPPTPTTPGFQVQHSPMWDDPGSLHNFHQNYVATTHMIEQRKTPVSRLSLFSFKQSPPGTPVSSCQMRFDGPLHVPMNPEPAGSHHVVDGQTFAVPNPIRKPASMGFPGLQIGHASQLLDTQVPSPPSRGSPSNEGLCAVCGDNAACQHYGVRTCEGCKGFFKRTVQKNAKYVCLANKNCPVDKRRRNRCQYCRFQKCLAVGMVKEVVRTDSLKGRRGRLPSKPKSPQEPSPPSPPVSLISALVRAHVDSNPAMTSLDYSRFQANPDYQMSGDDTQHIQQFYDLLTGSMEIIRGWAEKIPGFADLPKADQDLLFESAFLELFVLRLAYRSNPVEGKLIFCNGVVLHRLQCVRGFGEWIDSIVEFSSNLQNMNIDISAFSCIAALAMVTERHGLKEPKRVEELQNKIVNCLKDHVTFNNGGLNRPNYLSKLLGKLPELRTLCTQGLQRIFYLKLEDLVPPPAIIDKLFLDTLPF

Sc1ncnc2nc[nH]c12 [6-mercaptopurine]
width of incisional wounds compared to controls (incisional wounds; [2]): not increased
width of incisional wounds compared to naïve controls (incisional wounds; [2]): consistently lower
re-epithelialisation of incisional wounds (incisional wounds; three days after wounding, comparable with control wounds): fully re-epithelialised
agonist activity (NR4A1): agonist
agonist activity (NR4A3): agonist
agonist activity (NR4A2): agonist
macroscopic appearance of scars (macroscopic VAS) ([1]; 1 ng/100 μl intradermal): improved
microscopic appearance of scars (microscopic VAS) ([1]; 1 ng/100 μl intradermal): significantly improved
inhibition of scarring, microscopic appearance ([1]; 1 ng/100 μl, compared to both diluent and control wounds (p<0.01)): significantly inhibited scarring
inhibition of scarring, macroscopic appearance of treated wounds ([1]; 1 ng/100 μl, p<0.05 as compared to diluent controls): statistically significant inhibition of scarring
macroscopic appearance of scars (macroscopic VAS) ([1]; 10 ng/100 μl intradermal): improved
microscopic appearance of scars (microscopic VAS) ([1]; 10 ng/100 μl intradermal): significantly improved
inhibition of scarring, microscopic appearance ([1]; 10 ng/100 μl, compared to diluent and naïve controls (p<0.05)): significantly inhibited scarring
macroscopic appearance of scars (macroscopic VAS) ([1]; 1000 ng/100 μl intradermal): improved
microscopic appearance of scars (microscopic VAS) ([1]; 1000 ng/100 μl intradermal): significantly improved
inhibition of scarring, microscopic appearance ([1]; 1000 ng/100 μl, compared to diluent controls (p<0.05)): significantly inhibited scarring
inhibition of scarring, macroscopic appearance of treated wounds ([1]; 1000 ng/100 μl, p<0.05 as compared to both diluent and naïve controls): statistically significant inhibition of scarring
width of excisional wounds lower than naïve controls, significance (excisional wounds; 1 ng/100 μl, day 3, p<0.01 versus naïve control only (FIG. 5)): significantly so
width of excisional wounds compared to controls (excisional wounds; [3]): not increased
width of excisional wounds compared to naïve controls (excisional wounds; [3]): consistently lower
percentage re-epithelialisation of excisional wounds (excisional wounds; three days after excision, vs diluent control and naïve control): trend towards increased re-epithelialisation
